Test results from patent publication US7713994B2 (Wyeth LLC, priority 2005, dated 2010).

Columns and labels:
cyclin D1/cdk 4 enzyme = target: T1, cyclin D1/cdk 4 enzyme (Homo sapiens, UniProt P11802); experiment: CDK4 ELISA kinase assay (phospho-Rb ser 795 detection); assay type: biochemical; details: In Vitro Enzyme Assay, cyclin D1/cdk 4, read-out: CDK4 IC50
T1 construct: made in house; host or cells: Sf9 insect cells, recombinant baculovirus
Procedure, shortened: (§1)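 GST-Rb C-terminal fragment coated on plates; partially purified Sf9-expressed cyclin D1/CDK4, cyclin E/CDK2 or cyclin B/CDK1 with 200 μM ATP, pH 7.5 HEPES/MgCl2 buffer, 1 h at 30 °C; screen compound final 10 μg/ml. Phospho-Rb Ser795 detected by antibody ELISA (TMB, A450); % of control, IC50 from background-subtracted inhibition curves.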

cyclin B/CDK1 enzyme = target: T2, cyclin B/CDK1 enzyme (Homo sapiens, UniProt P06493); experiment: CDK1 ELISA kinase assay (phospho-Rb ser 795 detection); assay type: biochemical; details: In Vitro Enzyme Assay, cyclin B/CDK1, read-out: CDK1 IC50
T2 construct: purchased New England BioLabs; host or cells: Sf9 insect cells, recombinant baculovirus
T2 sequence (P06493 whole entry): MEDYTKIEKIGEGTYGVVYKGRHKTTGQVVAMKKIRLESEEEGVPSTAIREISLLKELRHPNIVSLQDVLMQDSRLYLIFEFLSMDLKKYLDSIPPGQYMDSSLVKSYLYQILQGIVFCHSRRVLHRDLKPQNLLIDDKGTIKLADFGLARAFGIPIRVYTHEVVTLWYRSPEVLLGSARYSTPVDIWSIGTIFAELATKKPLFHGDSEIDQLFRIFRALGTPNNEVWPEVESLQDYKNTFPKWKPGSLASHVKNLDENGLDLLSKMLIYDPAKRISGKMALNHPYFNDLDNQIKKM
T2 sequence (P14635 whole entry partner): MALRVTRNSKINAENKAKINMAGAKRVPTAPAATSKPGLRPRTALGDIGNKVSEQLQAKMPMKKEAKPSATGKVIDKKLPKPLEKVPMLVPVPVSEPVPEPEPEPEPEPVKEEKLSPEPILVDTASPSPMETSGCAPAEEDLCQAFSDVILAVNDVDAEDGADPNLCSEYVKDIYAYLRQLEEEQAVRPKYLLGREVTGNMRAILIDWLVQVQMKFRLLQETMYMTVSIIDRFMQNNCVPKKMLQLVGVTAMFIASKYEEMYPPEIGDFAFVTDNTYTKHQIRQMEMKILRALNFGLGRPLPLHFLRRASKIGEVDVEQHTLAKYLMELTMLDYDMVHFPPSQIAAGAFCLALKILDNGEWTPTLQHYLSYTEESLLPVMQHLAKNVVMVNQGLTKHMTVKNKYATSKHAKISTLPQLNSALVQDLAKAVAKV
Procedure, shortened: as §1

cyclin E/CDK2 enzyme = target: T3, cyclin E/CDK2 enzyme (Homo sapiens, UniProt P24941); experiment: CDK2 ELISA kinase assay (phospho-Rb ser 795 detection); assay type: biochemical; details: In Vitro Enzyme Assay, cyclin E/CDK2, read-out: CDK2 IC50
T3 construct: made in house; host or cells: Sf9 insect cells, recombinant baculovirus
Procedure, shortened: as §1

HCT-116 = experiment: Cytotoxicity assay (SRB), HCT-116; assay type: cell-based; details: Homo sapiens, HCT-116, 72 h, HCT116 cells, 3 days, SRB; read-out: In Vitro Cellular Activity IC50 HCT116
Procedure, shortened: (§2)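 Protein staining with sulforhodamine B after cold TCA fixation served as the survival endpoint (A540, relative to untreated cells). Before staining, cells were incubated with compound at 37 °C, 7% CO2 for 3 days, or 6 days for BT474.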

BT474 = experiment: Cytotoxicity assay (SRB), BT474; assay type: cell-based; details: Homo sapiens, BT-474, 144 h, BT474 cells, 6 days, SRB; read-out: In Vitro Cellular Activity IC50 BT474
Procedure, shortened: as §2

LoVo = experiment: Cytotoxicity assay (SRB), LoVo; assay type: cell-based; details: Homo sapiens, LoVo, 72 h, LoVo cells, 3 days, SRB; read-out: In Vitro Cellular Activity IC50 LOVO
Procedure, shortened: as §2

MCF-7 = experiment: Cytotoxicity assay (SRB), MCF-7; assay type: cell-based; details: Homo sapiens, MCF7, 72 h, MCF-7 cells, 3 days, SRB; read-out: In Vitro Cellular Activity IC50 MCF-7
Procedure, shortened: as §2

T1 sequence (P11802 whole entry, species assumed): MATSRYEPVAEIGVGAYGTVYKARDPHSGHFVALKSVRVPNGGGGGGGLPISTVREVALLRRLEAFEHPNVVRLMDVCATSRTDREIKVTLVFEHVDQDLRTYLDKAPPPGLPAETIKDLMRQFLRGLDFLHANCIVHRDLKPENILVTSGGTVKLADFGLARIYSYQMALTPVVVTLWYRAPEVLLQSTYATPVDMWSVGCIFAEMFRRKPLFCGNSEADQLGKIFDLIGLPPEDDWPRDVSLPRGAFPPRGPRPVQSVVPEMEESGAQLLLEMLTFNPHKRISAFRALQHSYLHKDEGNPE
T1 sequence (P24385 whole entry partner, species assumed): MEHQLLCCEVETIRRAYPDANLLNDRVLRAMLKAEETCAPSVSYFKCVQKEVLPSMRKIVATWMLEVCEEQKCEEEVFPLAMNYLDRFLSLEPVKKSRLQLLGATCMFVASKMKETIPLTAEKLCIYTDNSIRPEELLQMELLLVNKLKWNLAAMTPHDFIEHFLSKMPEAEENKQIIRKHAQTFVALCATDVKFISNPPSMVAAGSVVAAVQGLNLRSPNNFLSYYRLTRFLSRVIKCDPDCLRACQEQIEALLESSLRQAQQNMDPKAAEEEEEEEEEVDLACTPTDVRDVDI

Structure (SMILES) | IC50 (cyclin D1/cdk 4 enzyme) [µM] | IC50 (cyclin B/CDK1 enzyme) [µM] | IC50 (cyclin E/CDK2 enzyme) [µM] | IC50 (HCT-116) [µM] | IC50 (BT474) [µM] | IC50 (LoVo) [µM] | IC50 (MCF-7) [µM]
CN1CCN(c2ccc(NC=C3C(=O)NC(=O)c4ccc(C=Cc5ccccn5)cc43)cc2)CC1 [Example 675, 4-{[4-(4-Methyl-piperazin-1-yl)-phenylamino]-methylene}-6-(2-pyridin-2-yl-vinyl)-4H-isoquinoline-1,3-dione] | 1.77 | > 50 | > 50 | 2.3 | 7.7 | 6.8 | 7.2
CN1CCN(c2ccc(NC=C3C(=O)NC(=O)c4ccc(C=Cc5ccncc5)cc43)cc2)CC1 [Example 676, 4-{[4-(4-Methyl-piperazin-1-yl)-phenylamino]-methylene}-6-(2-pyridin-4-yl-vinyl)-4H-isoquinoline-1,3-dione] | 0.92 | 15.1 | 15.8 | 2.5 | 7.7 | 4.6 | 7.3
CN1CCN(c2ccc(NC=C3C(=O)NC(=O)c4ccc(C=Cc5cnccn5)cc43)cc2)CC1 [Example 678, 4-{[4-(4-Methyl-piperazin-1-yl)-phenylamino]-methylene}-6-(2-pyrazin-2-yl-vinyl)-4H-isoquinoline-1,3-dione] | 1.16 | 14.4 | > 50 | 3.5 | 9.1 | 6.1 | 10.5
CN1CCN(c2ccc(NC=C3C(=O)NC(=O)c4ccc(C=Cn5ccnc5)cc43)cc2)CC1 [Example 680, 6-(2-Imidazol-1-yl-vinyl)-4-{[4-(4-methyl-piperazin-1-yl)-phenylamino]-methylene}-4H-isoquinoline-1,3-dione] | 0.23 | > 50 | > 50 | 5.9 | 15.2 | 4.7 | 6.9
CN1CCN(c2ccc(NC=C3C(=O)NC(=O)c4ccc(-c5ccc(C(=O)O)cc5)cc43)cc2)CC1 [Example 685, 4-(4-{[4-(4-Methyl-piperazin-1-yl)-phenylamino]-methylene}-1,3-dioxo-1,2,3,4-tetrahydro-isoquinolin-6-yl)-benzoic acid] | 1.51 | > 50 | > 50 | 18.4 | 36.9 | 25 | 22.1
CC(=O)c1ccc(-c2ccc3c(c2)C(=CNc2ccc(N4CCN(C)CC4)cc2)C(=O)NC3=O)cc1 [Example 688, 6-(4-Acetyl-phenyl)-4-{[4-(4-methyl-piperazin-1-yl)-phenylamino]-methylene}-4H-isoquinoline-1,3-dione] | 0.26 | 21.1 | > 50 | 2 | 3.3 | 4.6 | 5
CN1CCN(c2ccc(NC=C3C(=O)NC(=O)c4ccc(-c5ccc(C=CC(=O)O)cc5)cc43)cc2)CC1 [Example 698, 3-[4-(4-{[4-(4-Methyl-piperazin-1-yl)-phenylamino]-methylene}-1,3-dioxo-1,2,3,4-tetrahydro-isoquinolin-6-yl)-phenyl]-acrylic acid] | 0.28 | > 50 | > 50 | 46.3 | 48.1 | > 50 | > 50
CN1CCN(c2ccc(NC=C3C(=O)NC(=O)c4ccc(C=Cc5ccc(S(N)(=O)=O)cc5)cc43)cc2)CC1 [Example 728, 4-[2-(4-{[4-(4-Methyl-piperazin-1-yl)-phenylamino]-methylene}-1,3-dioxo-1,2,3,4-tetrahydro-isoquinolin-6-yl)-vinyl]-benzenesulfonamide] | 0.07 | 1 | 1.3 | 29.1 | > 50 | > 50 | > 50
COc1ccc(CNC=C2C(=O)NC(=O)c3ccc(C=Cn4ccnc4)cc32)cc1O [Example 734, 4-[(3-Hydroxy-4-methoxy-benzylamino)-methylene]-6-(2-imidazol-1-yl-vinyl)-4H-isoquinoline-1,3-dione] | < 0.005 | 20.2 | 5 | 11.9 | 9.9 | 2.5 | 6.7
